Source: US6737383B1, “Herbicidal oxadiazolidines” (priority 1999, dated 2004)

Key:
[1] = test system: rape; assay: Test B pre/postemergence rape; type: in vivo, Brassica napus
Summary of the method: (§1)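 Herbicidal effect was estimated by eye on a ten-point control scale after plants spent twelve to sixteen days in a greenhouse following soil or foliar treatment. Foliar sprays targeted plants at one to four leaves; all doses were formulated in a non-phytotoxic solvent with surfactant.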

[2] = test system: crabgrass; assay: Test B pre/postemergence crabgrass; type: in vivo, Digitaria sanguinalis
Summary of the method: as §1

[3] = test system: sugar beet; assay: Test B pre/postemergence sugar beet; type: in vivo, Beta vulgaris
Summary of the method: as §1

[4] = test system: soybean; assay: Test B pre/postemergence soybean; type: in vivo, Glycine max
Summary of the method: as §1

[5] = test system: blackgrass; assay: Test B pre/postemergence blackgrass; type: in vivo, Alopecurus myosuroides
Summary of the method: as §1

[6] = test system: corn; assay: Test B pre/postemergence corn; type: in vivo, Zea mays
Summary of the method: as §1

[7] = test system: pigweed; assay: Test B pre/postemergence pigweed; type: in vivo, Amaranthus retroflexus
Summary of the method: as §1

[8] = test system: wheat; assay: Test B pre/postemergence wheat; type: in vivo, Triticum aestivum
Summary of the method: as §1

[9] = test system: purple nutsedge; assay: Test B pre/postemergence purple nutsedge; type: in vivo, Cyperus rotundus
Summary of the method: as §1

[10] = test system: bedstraw; assay: Test B pre/postemergence bedstraw; type: in vivo, Galium aparine
Summary of the method: as §1

[11] = test system: wild oat; assay: Test B pre/postemergence wild oat; type: in vivo, Avena fatua
Summary of the method: as §1

[12] = test system: surinam grass; assay: Test B pre/postemergence surinam grass; type: in vivo, Brachiaria decumbens
Summary of the method: as §1

[13] = test system: cocklebur; assay: Test B pre/postemergence cocklebur; type: in vivo, Xanthium strumarium
Summary of the method: as §1

[14] = test system: velvetleaf; assay: Test B pre/postemergence velvetleaf; type: in vivo, Abutilon theophrasti
Summary of the method: as §1

[15] = Postemergence, Rate 62 g/ha, scale 0 to 10, 0 is no effect, 10 is complete control
[16] = Postemergence, Rate 125 g/ha, scale of 0 to 10 where 0 is no effect and 10 is complete control
[17] = Postemergence, Rate 250 g/ha, scale 0 to 10, 0 no effect, 10 complete control
[18] = Preemergence, Rate 62 g/ha, scale 0 to 10 (0 no effect, 10 complete control)
[19] = Preemergence, Rate 125 g/ha, scale 0 to 10 (0 no effect, 10 complete control)
[20] = Preemergence, Rate 250 g/ha, scale of 0 to 10 where 0 is no effect and 10 is complete control
[21] = Preemergence, Rate 500 g/ha, scale 0 (no effect) to 10 (complete control)
[22] = Rate 500 g/ha, Postemergence, scale 0 to 10, 0 no effect, 10 complete control
[23] = Rate 125 g/ha, Postemergence, scale 0 to 10, 0 no effect, 10 complete control

Cc1ccccc1Cn1c(=O)on(C(=O)N(c2ccc(F)cc2)C(C)C)c1=O [Compound 88]
8: Sugarbeets plant response rating [3, 21] | Bedstraw plant response rating [10, 23]
10: Plant response rating, Crabgrass [2, 20] | Crabgrass plant response rating [2, 21] | Plant response rating, Redroot pigweed [7, 19] | Plant response rating, Redroot pigweed [7, 20] | Redroot pigweed plant response rating [7, 21]
5: Crabgrass plant response rating [2, 18] | Sugarbeets plant response rating [3, 16] | Blackgrass plant response rating [5, 16] | Redroot pigweed plant response rating [7, 22] | Wild oats plant response rating [11, 21] | B. signalgrass plant response rating [12, 21] | Cocklebur plant response rating [13, 22]
6: Plant response rating, Sugarbeets [3, 20] | Blackgrass plant response rating [5, 17] | Blackgrass plant response rating [5, 21] | Blackgrass plant response rating [5, 22]
9: Crabgrass plant response rating [2, 17] | Crabgrass plant response rating [2, 22] | Redroot pigweed plant response rating [7, 18] | Bedstraw plant response rating [10, 17] | Bedstraw plant response rating [10, 22]
3: Rape plant response rating [1, 22] | Sugarbeets plant response rating [3, 15] | Plant response rating, Sugarbeets [3, 19] | Redroot pigweed plant response rating [7, 15] | Redroot pigweed plant response rating [7, 16] | Redroot pigweed plant response rating [7, 17] | Bedstraw plant response rating [10, 15]
2: Sugarbeets plant response rating [3, 18] | Soybean plant response rating [4, 21] | Blackgrass plant response rating [5, 15] | Bedstraw plant response rating [10, 21] | Plant response rating, Wild oats [11, 19] | Plant response rating, Wild oats [11, 20] | Plant response rating, B. signalgrass [12, 19] | Plant response rating, B. signalgrass [12, 20] | B. signalgrass plant response rating [12, 23] | B. signalgrass plant response rating ([12]; Rate 500 g/ha, Postemergence, scale of 0 to 10 where 0 is no effect and 10 is complete control) | Velvetleaf plant response rating [14, 21]
4: Plant response rating, Blackgrass [5, 19] | Plant response rating, Blackgrass [5, 20]
1: Soybean plant response rating [4, 15] | Soybean plant response rating [4, 16] | Soybean plant response rating [4, 17] | Soybean plant response rating [4, 22] | Blackgrass plant response rating [5, 18] | Cocklebur plant response rating [13, 17]
7: Plant response rating, Crabgrass [2, 19] | Sugarbeets plant response rating [3, 17] | Sugarbeets plant response rating [3, 22]
0: Rape plant response rating [1, 15] | Rape plant response rating [1, 16] | Rape plant response rating [1, 17] | Rape plant response rating [1, 18] | Plant response rating, Rape [1, 19] | Plant response rating, Rape [1, 20] | Rape plant response rating [1, 21] | Crabgrass plant response rating [2, 15] | Crabgrass plant response rating [2, 16] | Soybean plant response rating [4, 18] | Plant response rating, Soybean [4, 19] | Plant response rating, Soybean [4, 20] | Corn plant response rating [6, 15] | Corn plant response rating [6, 16] | Corn plant response rating [6, 17] | Corn plant response rating [6, 18] | Plant response rating, Corn [6, 19] | Plant response rating, Corn [6, 20] | Corn plant response rating [6, 21] | Corn plant response rating [6, 22] | Wheat plant response rating [8, 15] | Wheat plant response rating [8, 16] | Wheat plant response rating [8, 17] | Wheat plant response rating [8, 18] | Plant response rating, Wheat [8, 19] | Plant response rating, Wheat [8, 20] | Wheat plant response rating [8, 21] | Wheat plant response rating [8, 22] | Nutsedge plant response rating [9, 15] | Nutsedge plant response rating [9, 16] | Nutsedge plant response rating [9, 17] | Nutsedge plant response rating [9, 18] | Plant response rating, Nutsedge [9, 19] | Plant response rating, Nutsedge [9, 20] | Nutsedge plant response rating [9, 21] | Nutsedge plant response rating [9, 22] | Bedstraw plant response rating [10, 18] | Plant response rating, Bedstraw [10, 19] | Plant response rating, Bedstraw [10, 20] | Wild oats plant response rating [11, 15] | Wild oats plant response rating [11, 16] | Wild oats plant response rating [11, 17] | Wild oats plant response rating [11, 18] | Wild oats plant response rating [11, 22] | B. signalgrass plant response rating [12, 15] | B. signalgrass plant response rating [12, 17] | B. signalgrass plant response rating [12, 18] | Cocklebur plant response rating [13, 15] | Cocklebur plant response rating [13, 16] | Cocklebur plant response rating [13, 18] | Plant response rating, Cocklebur [13, 19] | Plant response rating, Cocklebur [13, 20] | Cocklebur plant response rating [13, 21] | Velvetleaf plant response rating [14, 15] | Velvetleaf plant response rating [14, 16] | Velvetleaf plant response rating [14, 17] | Velvetleaf plant response rating [14, 18] | Plant response rating, Velvetleaf [14, 19] | Plant response rating, Velvetleaf [14, 20] | Velvetleaf plant response rating [14, 22]
